Where two headings read alike, the source gives them in different places.
How the values were obtained:
[1] = tested on: MiaPaca-2 (expressing KRAS G12C mutant); experiment: Proliferation Assay (Cell Viability Assay); assay type: cell-based; conditions: Homo sapiens, MIA PaCa-2
Outline: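 MiaPaca-2 cells (KRAS G12C) were grown in DMEM-high glucose with 10% FBS, seeded at 2000–5000 cells/well and cultured overnight. Compounds were added at 10 μM final, or as serial dilutions for IC50, in 0.3% DMSO/10% FBS for 2–4 days at 37 °C, 5% CO2. Viability was measured with CellTiter 96 Aqueous One and % inhibition calculated.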

[2] = target: T1, Rac-1 (Homo sapiens, UniProt P63000); experiment: Ras GTP Binding Domain Inhibition Assay (Ras Superfamily Assay); conditions: read-out: Rac-1: % inh.
T1 construct: made in house
Outline: (§1)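 Binding of 100 nM fluorescent GTP (Cy3 or Cy5, 45 min, room temperature) was read after washes from plate-captured His-tagged protein. Beforehand, compounds at 20 μM or in dilution series for IC50 sat 3 h on the protein in Tris buffer pH 7.4 or 7.0 with 1% DMSO, Sos GEF optionally added for the last hour.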

[3] = tested on: KRas wild type; experiment: as above; conditions: 20 μM compound; for KRas wild type + SOS: % inh.: with SOS; for KRas wild type: % inh.: without SOS
Outline: as §1

[4] = tested on: KRas G12D mutant; experiment: as above; conditions: 20 μM compound; for KRas G12D mutant + SOS: % inh.: with SOS; for KRas G12D mutant: % inh.: without SOS
Outline: as §1

[5] = read-out: Proliferation in MiaPaca-2: IC50

Row | IC50 [1, 5] [nM] | inhibition at 20 µM [2] [%] | KRas wild type + SOS: % inh. [3] | KRas wild type: % inh. [3] | KRas G12D mutant + SOS: % inh. [4] | KRas G12D mutant: % inh. [4] | IC50 ([1]; Proliferation assay, MiaPaca-2, read-out: MiaPaca-2 IC50 (nM) Pancreatic) [nM] | Compound
1 | < 150 | 76 to 100 | C (C = 50-75% inhibition) | D (D = 76-100% inhibition) | C (C = 50-75% inhibition) | C (C = 50-75% inhibition) | 1 to 10 | Cc1c(-c2ccn(C)n2)cn2nc(-c3nccn3C)nc(Nc3cc4n(n3)CCO4)c12 [Compound 124, N-(5-Methyl-2-(1-methyl-1H-imidazol-2-yl)-6-(1-methyl-1H-pyrazol-3-yl)pyrrolo[2,1-f][1,2,4]triazin-4-yl)-2,3-dihydropyrazolo[5,1-b]oxazol-6-amine]
2 | < 150 | 76 to 100 | D (D = 76-100% inhibition) | D (D = 76-100% inhibition) | D (D = 76-100% inhibition) | D (D = 76-100% inhibition) | – | Cc1c(-c2ccn(C)n2)cn2nc(-c3nccn3C)nc(Nc3cc(OC(F)(F)F)ccn3)c12 [Compound 127, 5-Methyl-2-(1-methyl-1H-imidazol-2-yl)-6-(1-methyl-1H-pyrazol-3-yl)-N-(4-(trifluoromethoxy)pyridin-2-yl)pyrrolo[2,1-f][1,2,4]triazin-4-amine]
3 | < 150 | 76 to 100 | D (D = 76-100% inhibition) | D (D = 76-100% inhibition) | D (D = 76-100% inhibition) | D (D = 76-100% inhibition) | – | Cc1c(-c2ccn(C)n2)cn2nc(-c3nccn3C)nc(Nc3cc(OC(F)F)ccn3)c12 [Compound 128, N-(4-(Difluoromethoxy)pyridin-2-yl)-5-methyl-2-(1-methyl-1H-imidazol-2-yl)-6-(1-methyl-1H-pyrazol-3-yl)pyrrolo[2,1-f][1,2,4]triazin-4-amine]
4 | > 1000 | 1 to 25 | 0 (0 = 0% inhibition) | 0 (0 = 0% inhibition) | A (A = 1-25% inhibition) | A (A = 1-25% inhibition) | – | Cc1c(-c2ccn(C3CC3)n2)cn2nc(-c3nccn3C)nc(O)c12 [Compound 134, 6-(1-Cyclopropyl-1H-pyrazol-3-yl)-5-methyl-2-(1-methyl-1H-imidazol-2-yl)pyrrolo[2,1-f][1,2,4]triazin-4-ol]
5 | < 150 | 50 to 75 | B (B = 26-49% inhibition) | C (C = 50-75% inhibition) | B (B = 26-49% inhibition) | C (C = 50-75% inhibition) | – | COc1ccnc(Nc2nc(-c3nccn3C)nn3cc(-c4ccn(C5CC5)n4)c(C)c23)c1 [Compound 137, 6-(1-Cyclopropyl-1H-pyrazol-3-yl)-N-(4-methoxypyridin-2-yl)-5-methyl-2-(1-methyl-1H-imidazol-2-yl)pyrrolo[2,1-f][1,2,4]triazin-4-amine]

Second part, the molecule before the results:

Row | Compound | IC50 [1, 5] [nM] | inhibition at 20 µM [2] [%] | KRas wild type + SOS: % inh. [3] | KRas wild type: % inh. [3] | KRas G12D mutant + SOS: % inh. [4] | KRas G12D mutant: % inh. [4] | IC50 ([1]; Proliferation assay, MiaPaca-2, read-out: MiaPaca-2 IC50 (nM) Pancreatic) [nM]
6 | Cc1c(-c2ccn(C(C)C)n2)cn2nc(-c3nccn3C)nc(Nc3nccc(OCCO)n3)c12 [Compound 121, 2-((2-((6-(1-Isopropyl-1H-pyrazol-3-yl)-5-methyl-2-(1-methyl-1H-imidazol-2-yl)pyrrolo[2,1-f][1,2,4]triazin-4-yl)amino)pyrimidin-4-yl)oxy)ethan-1-ol] | 510 to 1000 | 76 to 100 | C (C = 50-75% inhibition) | D (D = 76-100% inhibition) | D (D = 76-100% inhibition) | D (D = 76-100% inhibition) | –
7 | COCCOc1cc(Nc2nc(-c3nccn3C)nn3cc(-c4ccn(C(C)C)n4)c(C)c23)ncn1 [Compound 122, 6-(1-Isopropyl-1H-pyrazol-3-yl)-N-(6-(2-methoxyethoxy)pyrimidin-4-yl)-5-methyl-2-(1-methyl-1H-imidazol-2-yl)pyrrolo[2,1-f][1,2,4]triazin-4-amine] | < 150 | 76 to 100 | D (D = 76-100% inhibition) | D (D = 76-100% inhibition) | D (D = 76-100% inhibition) | D (D = 76-100% inhibition) | –
8 | Cc1c(-c2ccn(C(C)C)n2)cn2nc(-c3nccn3C)nc(Nc3cc(OCCN(C)C)ncn3)c12 [Compound 123, N-(6-(2-(Dimethylamino)ethoxy)pyrimidin-4-yl)-6-(1-isopropyl-1H-pyrazol-3-yl)-5-methyl-2-(1-methyl-1H-imidazol-2-yl)pyrrolo[2,1-f][1,2,4]triazin-4-amine] | < 150 | 76 to 100 | D (D = 76-100% inhibition) | D (D = 76-100% inhibition) | D (D = 76-100% inhibition) | D (D = 76-100% inhibition) | –
9 | Cc1c(-c2ccn(C(C)C)n2)cn2nc(-c3nccn3C)nc(Nc3ncc[nH]3)c12 [Compound 125, N-(1H-Imidazol-2-yl)-6-(1-isopropyl-1H-pyrazol-3-yl)-5-methyl-2-(1-methyl-1H-imidazol-2-yl)pyrrolo[2,1-f][1,2,4]triazin-4-amine] | 150 to 500 | 50 to 75 | B (B = 26-49% inhibition) | C (C = 50-75% inhibition) | C (C = 50-75% inhibition) | C (C = 50-75% inhibition) | –
10 | Cc1c(-c2ccn(C)n2)cn2nc(-c3nccn3C)nc(Nc3cc(OC4CC4)ccn3)c12 [Compound 126, N-(4-Cyclopropoxypyridin-2-yl)-5-methyl-2-(1-methyl-1H-imidazol-2-yl)-6-(1-methyl-1H-pyrazol-3-yl)pyrrolo[2,1-f][1,2,4]triazin-4-amine] | < 150 | 26 to 49 | A (A = 1-25% inhibition) | A (A = 1-25% inhibition) | B (B = 26-49% inhibition) | B (B = 26-49% inhibition) | –
11 | Cc1c(-c2ccn(C)n2)cn2nc(-c3nccn3C)nc(Nc3cc(OCC(F)(F)F)ccn3)c12 [Compound 129, 5-Methyl-2-(1-methyl-1H-imidazol-2-yl)-6-(1-methyl-1H-pyrazol-3-yl)-N-(4-(2,2,2-trifluoroethoxy)pyridin-2-yl)pyrrolo[2,1-f][1,2,4]triazin-4-amine] | < 150 | 26 to 49 | B (B = 26-49% inhibition) | B (B = 26-49% inhibition) | B (B = 26-49% inhibition) | B (B = 26-49% inhibition) | –
12 | COCCO[C@H]1C[C@H](Nc2nc(-c3nccn3C)nn3cc(-c4ccn(C)n4)c(C)c23)C1 [Compound 130, N-((1r,3r)-3-(2-Methoxyethoxy)cyclobutyl)-5-methyl-2-(1-methyl-1H-imidazol-2-yl)-6-(1-methyl-1H-pyrazol-3-yl)pyrrolo[2,1-f][1,2,4]triazin-4-amine] | > 1000 | 0 | 0 (0 = 0% inhibition) | A (A = 1-25% inhibition) | A (A = 1-25% inhibition) | B (B = 26-49% inhibition) | –
13 | CO[C@H]1C[C@@H](Nc2nc(-c3nccn3C)nn3cc(-c4ccn(C)n4)c(C)c23)C1 [Compound 131, N-((1s,3s)-3-Methoxycyclobutyl)-5-methyl-2-(1-methyl-1H-imidazol-2-yl)-6-(1-methyl-1H-pyrazol-3-yl)pyrrolo[2,1-f][1,2,4]triazin-4-amine] | > 1000 | 0 | 0 (0 = 0% inhibition) | B (B = 26-49% inhibition) | 0 (0 = 0% inhibition) | A (A = 1-25% inhibition) | –
14 | COc1cc(Nc2nc(-c3nccn3C)nn3cc(-c4ccn(C5CC5)n4)c(C)c23)ncn1 [Compound 135, 6-(1-Cyclopropyl-1H-pyrazol-3-yl)-N-(6-methoxypyrimidin-4-yl)-5-methyl-2-(1-methyl-1H-imidazol-2-yl)pyrrolo[2,1-f][1,2,4]triazin-4-amine] | < 150 | 76 to 100 | D (D = 76-100% inhibition) | D (D = 76-100% inhibition) | D (D = 76-100% inhibition) | D (D = 76-100% inhibition) | –
15 | Cc1c(-c2ccn(C)n2)cn2nc(-c3nccn3C)nc(Nc3cc(OC(C)C)ccn3)c12 [Compound 136, N-(4-Isopropoxypyridin-2-yl)-5-methyl-2-(1-methyl-1H-imidazol-2-yl)-6-(1-methyl-1H-pyrazol-3-yl)pyrrolo[2,1-f][1,2,4]triazin-4-amine] | < 150 | 76 to 100 | D (D = 76-100% inhibition) | C (C = 50-75% inhibition) | D (D = 76-100% inhibition) | D (D = 76-100% inhibition) | –

From patent US12459951B2, “Compounds that interact with RAS superfamily proteins for treatment of cancers, inflammatory diseases, rasopathies, and fibrotic disease” (SHY Therapeutics, LLC, priority 2022, dated 2025)
